Reference: ChEMBL document CHEMBL1141438, “Securinega alkaloids from the wood of Securinega suffruticosa var. amamiensis” (J Nat Prod, 2007)
In brackets after ≈: the same amount, converted by molar mass.

Tests used:
KB = assay: Cytotoxicity against human KB cells; type: functional, cell-based
L1210 = assay: Cytotoxicity against mouse L1210 cells; type: functional, cell-based

O=C1C=C2C=C[C@@H]3C[C@@]2(O1)[C@H]1C[C@@H](O)CCN31
IC50 (KB): 3 µg/mL (≈ 12.9 µM) | IC50 (L1210): 3.7 µg/mL (≈ 15.9 µM)

O=C1C=C2C=C[C@@H]3C[C@@]2(O1)[C@@H]1CCCCN1O3 [PHYLLANTIDINE]
IC50 (KB): > 5 µg/mL | IC50 (L1210): > 5 µg/mL

CO[C@H]1CCN2[C@@H](C1)[C@]13C[C@H]2[C@@H](OC)CC1=CC(=O)O3 [SECURINEGA AMAMINE B]
IC50 (KB): > 5 µg/mL | IC50 (L1210): > 5 µg/mL

CO[C@H]1CC2=CC(=O)O[C@@]23C[C@@H]1N1CCCC[C@@H]13 [SECURINEGA AMAMINE C]
IC50 (KB): > 5 µg/mL | IC50 (L1210): > 5 µg/mL

CO[C@H]1CCN2O[C@@H]3C=CC4=CC(=O)O[C@]4(C3)[C@@H]2C1 [SECURINEGA AMAMINE D]
IC50 (KB): > 5 µg/mL | IC50 (L1210): > 5 µg/mL

O=C1C=C2C=C[C@@H]3C[C@@]2(O1)[C@H]1CCCCN31 [SECURININE]
IC50 (KB): 2.2 µg/mL (≈ 10.1 µM) | IC50 (L1210): 1.9 µg/mL (≈ 8.74 µM)
